This note sets out measurements from BindingDB's records for doi:10.1016/S0960-894X(01)80104-9 (1994).

Each structure is given as a SMILES string. pIC50: −log10 of the molar value.

In one experiment the target is T1, Thromboxane A2 receptor (Homo sapiens, UniProt P21731).
T1 sequence (P21731 whole entry): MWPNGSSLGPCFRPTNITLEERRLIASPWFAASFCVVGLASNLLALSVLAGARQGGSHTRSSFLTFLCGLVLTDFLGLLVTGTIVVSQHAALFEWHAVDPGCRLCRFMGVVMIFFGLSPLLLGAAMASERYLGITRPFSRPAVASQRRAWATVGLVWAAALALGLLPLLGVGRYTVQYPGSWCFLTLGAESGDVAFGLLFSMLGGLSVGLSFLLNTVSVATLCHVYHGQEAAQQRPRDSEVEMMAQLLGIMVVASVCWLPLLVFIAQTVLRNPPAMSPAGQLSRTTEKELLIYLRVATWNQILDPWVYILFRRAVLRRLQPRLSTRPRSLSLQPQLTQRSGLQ
Nature of the experiment: In vitro thromboxane receptor antagonist against U-46619 induced aggregation of washed human platelets.

Experiment [1] can be described thus: In vitro thromboxane receptor antagonist against U-46619 induced aggregation of washed human platelets.

In general, pIC50 refers to the IC50 on a negative log10 scale, so that one unit is a factor of ten. Low readings indicate a high IC50, high ones a low IC50. Consider `O=C(O)CC/C=C\CC[C@H]1[C@@H](OCc2ccc(-c3ccccc3)cc2)CO[C@@H]1c1cccnc1` [(Z)-7-[(2S,3R,4R)-4-(Biphenyl-4-ylmethoxy)-2-pyridin-3-yl-tetrahydro-furan-3-yl]-hept-4-enoic acid], for which the pIC50 at Thromboxane A2 receptor is 7.55; in experiment [1] it was 7.57.
In experiment [1], `O=C(O)CCCCO/N=C(/c1cccnc1)c1cccc(C(F)(F)F)c1` [5-[Pyridin-3-yl-(3-trifluoromethyl-phenyl)-methyleneaminooxy]-pentanoic acid] showed a pIC50 of 5.89.
Same read-out and setting: in the case of `O=C(O)CC/C=C\CC[C@H]1[C@H](OCc2ccc(-c3ccccc3)cc2)CO[C@H]1c1cccnc1` [(Z)-7-[(2R,3R,4S)-4-(Biphenyl-4-ylmethoxy)-2-pyridin-3-yl-tetrahydro-furan-3-yl]-hept-4-enoic acid] it was 6.09; in that of `O=C(O)CC/C=C\CC[C@H]1[C@@H](OCc2ccc(-c3ccccc3)cc2)CO[C@H]1c1cccnc1` [(Z)-7-[(2R,3R,4R)-4-(Biphenyl-4-ylmethoxy)-2-pyridin-3-yl-tetrahydro-furan-3-yl]-hept-4-enoic acid], 6.10; in that of `O=C(O)CC/C=C\CC[C@@H]1[C@@H](c2cccnc2)OC[C@H]1OCc1ccc(-c2ccccc2)cc1` [(Z)-7-[(2S,3R,4S)-4-(Biphenyl-4-ylmethoxy)-2-pyridin-3-yl-tetrahydro-furan-3-yl]-hept-4-enoic acid], 7.06.
